Reference: article PMC11758220, “Identification of a Privileged Scaffold for Inhibition of Sterol Transport Proteins through the Synthesis and Ring Distortion of Diverse, Pseudo-Natural Products” (ACS Central Science, 2025)

Columns and labels:
[1] = target: T1, Aster-A (Homo sapiens, UniProt Q96CP6); experiment: Microplate-based cholesterol transfer assay between liposomes (FRET); format: biochemical; conditions: Aster-A 125 nM, compound 10 μM, FRET with Rh-DHPE
T1 construct: Aster-A(359-547); GST (PreScission-cleavable) (N, cleaved yes); made in house; host or cells: E. coli OverExpress C41
T1 sequence (Q96CP6 359-547): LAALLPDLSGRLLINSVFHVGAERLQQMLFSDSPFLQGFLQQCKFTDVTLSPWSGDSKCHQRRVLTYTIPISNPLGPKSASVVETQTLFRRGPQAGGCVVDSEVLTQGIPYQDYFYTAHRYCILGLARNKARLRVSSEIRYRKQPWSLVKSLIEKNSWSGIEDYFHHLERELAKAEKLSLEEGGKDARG

[2] = test system: panel of STPs; experiment: Screen against a broad panel of the STPs using FP and DSF assays; format: binding, human
Description: Protein expression constructs
Human ASTER domains of Aster-A(359-547), -B(364-552) and -C(318-504) were subcloned into a pGEX-6p-2rbs vector, thus introducing the cloning artifact ‘GPLGS’.3 The pGEX-6P-1-GST-OSBP(377- […]
a gift from James H. Hurley (University of California).4 The pHIS_2His6_Thrombin_STARD4(2-205;C75S) plasmid was a gift from Young Jun Im (Chonnam National University).5 STARD5A was a gift from Nicola Burgess-Brown (Addgene plasmid #42392; http://n2t.net/addgene:42392; […]
Protein expression and purification […]
vectors including an N-terminal PreScission-cleavable glutathione S-transferase (GST)-tag were expressed in Escherichia coli (E. coli) OverExpress C41 in Terrific Broth (TB) medium for 16 h at 18 °C after the induction with 0.1 mM isopropyl β-D-1-thiogalactopyranoside (IPTG). Cells were harvested at 3500 × g for 15 minutes and lysed by sonication in buffer containing 50 mM HEPES pH 7.5, 300 mM NaCl, 10 %v/v glycerol, 5 mM dithiothreitol (DTT), 0.1 %v/v Triton X-100 and protease inhibitor mix HP plus (Serva). The lysate was purified by affinity chromatography on a GSTrap FF column (Cytiva) using an ÄKTA Start (Cytiva) in buffer containing 50 mM HEPES pH 7.5, 300 mM NaCl, 10 %v/v glycerol, 5 mM DTT and 0.01 %v/v Triton X-100. The GST-tag was cleaved overnight on the column at 4 °C. […]

[3] = target: T2, STARD5 (Homo sapiens, UniProt Q9NSY2); parameters: method as in Depta et al.[43]; conditions: data reproduced; ref Depta et al.[43]; read-out: STARD5 Kd,app (DSF); cited from earlier work
T2 construct: STARD5(6-213); host or cells: E. coli BL21(DE3)
T2 sequence (Q9NSY2 6-213): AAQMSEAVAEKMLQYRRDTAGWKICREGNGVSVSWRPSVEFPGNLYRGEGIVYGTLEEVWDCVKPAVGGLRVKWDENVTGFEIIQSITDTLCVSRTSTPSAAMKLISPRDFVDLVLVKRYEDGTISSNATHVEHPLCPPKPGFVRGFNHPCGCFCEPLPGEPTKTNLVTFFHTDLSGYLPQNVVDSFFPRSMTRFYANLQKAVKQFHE

For CC12CCC3CC1CCC21C(=Nc2ccc(N4CCOCC4)cc21)O3 (single isomer, unassigned; (-)) [(−)-19a], which “Inhibition of Aster-A mediated transport of 23-BODIPY-cholesterol between synthetic liposomes” value [1] is on record?
The value was “inhibited”.

With CC12CCC3CC1CCC21C(=Nc2ccc(N4CCNCC4)cc21)O3 (stereo not drawn) [Compound 22] as the molecule, how does the “Activity against the panel of STPs (in words)” value [2] read?
The value was “lost almost all activity”.

Which Kd [3] does the source give for CCN(CC)CCO[C@H]1CC[C@@]2(C)C(=CC[C@@H]3[C@@H]2CC[C@]2(C)C(=O)CC[C@@H]32)C1 [Compound U18666A, reference compound] here?
The Kd was over 30 µM.
